The record followed here is patent US6028197A, “Dibenzo[a,g]quinolizinium derivatives and the salts thereof” (Hanwha Corporation, priority 1998, dated 2000).

Some results are limits rather than exact numbers.

One series deals with T1, sterol 14-reductase (Rattus norvegicus, UniProt A0ACM8Q6X4).
T1 construct: microsome which was used as an enzyme source of sterol 14-reductase; from tissue; host or cells: liver microsomes of male Sprague-Dawley rats fed lovastatin and cholestyramine
T1 sequence (A0ACM8Q6X4 1-418): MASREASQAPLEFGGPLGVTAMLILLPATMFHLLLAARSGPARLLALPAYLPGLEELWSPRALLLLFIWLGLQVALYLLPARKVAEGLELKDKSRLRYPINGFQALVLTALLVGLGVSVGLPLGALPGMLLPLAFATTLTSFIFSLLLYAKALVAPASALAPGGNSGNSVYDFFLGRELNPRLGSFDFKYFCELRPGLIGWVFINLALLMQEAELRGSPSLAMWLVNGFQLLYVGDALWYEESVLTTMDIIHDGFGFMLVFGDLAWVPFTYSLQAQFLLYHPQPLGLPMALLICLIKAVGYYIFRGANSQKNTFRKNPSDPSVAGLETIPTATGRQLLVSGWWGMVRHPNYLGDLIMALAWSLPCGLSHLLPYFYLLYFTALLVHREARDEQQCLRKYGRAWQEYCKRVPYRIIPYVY
Put plainly: Inhibition of sterol 14-reductase in rat liver microsomes. In kind it is biochemical. The settings on record: read-out: Enzyme Activity (relative in vitro activity for sterol 14-reductase, IC50 class). For orientation: Liver microsomes are vesicles of endoplasmic reticulum, rich in cytochrome P450 enzymes.

For another series, the system named is HepG2 cells. Put plainly: Cholesterol biosynthesis in cultured human liver cell line ([1,2-14C]acetate incorporation). The class given is cell-based. Particulars: compared with AY9944 (comparative drug). As to the method: Cultured human liver HepG2 cell line was grown on RPMI (Rosewell park Memorial Institute) 1640 culture medium containing 10% PBS until 60% of monolayer are formed in a 60 mm culture dish. After replacing the medium with 3 ml of a fresh culture medium containing 10% (v/v) LPDS (Fetal calf lipoprotein-deficient serum), the cells were further grown for 48 hours until 90% of cultivation degree appear The culture medium was removed and the cell was then washed with PBS. 2 ml of culture medium containing compound no. 2 (final concentration 100 μM) and AY-9944 (final concentration 1 μM) were added thereto. Then, the medium was cultivated at 37° C. for 1 hour under the condition of 95% air/5% carbonic acid gas. AY-9944 which is an inhibitor for sterol 7-reductase was used as a control drug for assuring the present experimental procedure on the inhibition of cholesterol biosynthesis. Thereafter, 3 μCi of [1,2-^14 C]acetate (72 mCi/mmol) were added thereto. The cultivation was continued for 2 hours so that the isotope is introduced into the cell and used as a precursor for sterol to be synthesized. Then, the culture medium was completely removed and washed with PBS twice and the cells were collected by scratching. 10 μg of cholesterol, 10 μg of lanosterol and [^3 H]cholesterol (30,000 dpm) were added thereto, and saponification reaction was carried out at 70° C. for an hour by adding 7.5% of methanolic KOH solution. Unsaponified sterol was removed by extracting them three times with 3 ml of petroleum ether and dried with nitrogen purging. The dried samples were redissolved in 200 μl of chloroform. An aliquot of the samples was loaded onto Silicagel 60F thin layer plate and then separated using ethyl acetate/hexane 25/75 (v/v) as the developing solvent. The thin layer film was developed by exposure to Amersham Hyperfilm at -70° C. for 7 days. Cholesterol band were confirmed by comparing the band appeared in the film and that appeared in the iodine-stained thin layer. After scratching the cholesterol band, it was quantified by a liquid scintillation counter.

The next series concerns Syrian Golden Hamster. The experiment in a line: In vivo effect on plasma lipids in Syrian Golden Hamster. The settings on record: for HDL cholesterol, change versus normal diet control / LDL cholesterol, change versus normal diet control / Total cholesterol, change versus normal diet control / Triglyceride, change versus normal diet control / HDL cholesterol / LDL cholesterol / Total cholesterol / Triglyceride: 0.3 mg/kg/day oral, 14 days; for total cholesterol, LDL-cholesterol, and triglyceride levels: compared with lovastatin; for HDL cholesterol / LDL cholesterol / Total cholesterol / Triglyceride: normal diet, plasma. As to the method:
In order to investigate the effect of the compound of formula (I) of the invention, the compound was orally administered into male Syrian Golden Hamsters having weights of 90~110 g for two weeks and blood was then taken from each animal. Plasma lipids, i.e., total cholesterol, LDL-cholesterol,HDL-cholesterol and triglycerides were analyzed using an automatic analyzer (Automatic analyzer model Hitachi 7150).
Male Syrian Golden Hamsters weighing 90~110 g distributed from Samyuk Animal Laboratory, Seoul, Korea were bred under the following conditions: they were maintained under reverse light cycle (light cycle: from 6 P.M to 6 A.M; dark cycle: from 6 A.M. to 6 P.M.). The food and water were supplied at 10 A.M. The commercially available standard rodent chows were used. The hamsters were divided into 6 or 7 animals per group. The animals were fasted for 12 hours before administrating the drug. Then, 5,6-dihydrodibenzo[a,g]quinolizinium salts (compound no. 2) dissolved in a 0.25% methyl cellulose solution was administered orally for 14 days at the indicated time per a day. After fasting animals for 24 hours from the last administration, blood was extracted using a cardiac puncture and plasma was then isolated. Plasma lipids, i.e., total cholesterol, LDL-cholesterol, HDL-cholesterol and triglyceride values were analyzed using Automatic Analyzer (Hitachi 7150).

The nature of series [1]: Acute oral toxicity in SD rats. The settings on record: rat, in vivo, po, rats. In kind it is in vivo. How it is done: (§1) Meanwhile, the toxicity of the compounds of the present invention was investigated as follows: i.e., the compounds were suspended into propylene glycol and then orally administered into each of 5 male and female SD rats at the age of 5-weeks that were fasted for 12 hours. Under the usual breeding conditions, general symptoms, weight change and lethal case of the above rats were monitored for two weeks. At the dose over 2,000 mg/kg of the compound nos. 2, 3, 9 and 68, general symptoms and the body weight change of the animals were normal and the lethal case was not observed.

In the next series the test system is SD rats. Put plainly: Acute oral toxicity in SD rats. The class given is in vivo. The settings on record: for general symptoms and the body weight change: oral dose over 2,000 mg/kg, monitored for two weeks; for lethal case: rat, in vivo. As to the method: as §1

Method for sterol 14-reductase: 20 Male Sprague-Dawley rats weighing from 150 to 250 g have been fed for 7 days with a diet containing 0.1% (w/w) Lovastatin and 5% (w/w) Cholestyramine. The animals were fasted for 12 hours before excising liver tissues and then sacrificed by decapitation at midnight. An aqueous solution containing 0.25M of sucrose was injected into the hepatic portal vein to remove all the blood within the liver, and then, the liver was excised. The liver was homogenated with two volumes of buffer solution A (0.1M potassium phosphate, 1 mM reduced glutathione, 0.5 mM EDTA, 20% (v/v) glycerol, pH 7.4) by repeating pestles over 10 times and then, centrifuged with 900×g for 5 minutes to give a supernatant. The supernatant was centrifuged with 12,000×g for 20 minutes. The supernatant obtained was ultracentrifuged with 105,000×g for 90 minutes to give a microsome which was used as an enzyme source of sterol 14-reductase. Assay for sterol 14-reductase was carried out as follows:
60 mmol of 4,4-dimethyl-5α-cholesta-7,14-dien-3β-ol and 5,6-dihydrodibenzo-[a,g]quinolizinium salts (compound no. 2) dissolved in DMSO were added to an assay mixture (total volume 1.0 ml) containing 2 mg of the microsomal protein, 2 mM of NADPH and 25 mg of glucose plus 20 units of glucose oxidase with preincubations under nitrogen at 37° C. for 4 min. unless otherwise specified to establish anaerobic condition. Buffer A (0.1M potassium phosphate buffer, pH 7.4, including 1 mM reduced glutathione, 0.5 mM EDTA, and 20% (v/v) glycerol) used for incubation had been equilibrated with nitrogen, and nitrogen was exchanged for air in all sealed reaction flasks prior to the start of incubations. Incubation of the complete mixture was carried out anaerobically in sealed flasks for 10 min at 37° C. unless otherwise indicated. Incubations were terminated by the addition of 1 ml of ethanolic KOH followed by heating under reflux for 10 min. Sterols were extracted four times with 4 ml of petroleum ether, and the solvent was evaporated to dryness under a nitrogen stream. The resulting residue was dissolved in 200-500 μl of n-hexane for quantification by GLC at high sensitive attenuation. The activity of sterol 14-reductase was determined with the amount of the substrate wherein the double bonds of 14-carbon were reduced (for the amount reduced by 1 mg of the microsome protein for 1 minute).

As to `CCc1c2[n+](cc3c(OCc4c(F)c(F)c(F)c(F)c4F)c(OC)ccc13)CCc1cc(OC)c(OC)cc1-2` [Compound No. 3, 5,6-dihydro-2,3-dimethoxybenzo[a]-13-ethyl-10-methoxy-9-(2,3,4,5,6-pentafluoro)benyloxybenzo[g]quinolizinium chloride], the IC50 on sterol 14-reductase was < 1000 nM. The “inhibition of cholesterol biosynthesis in human HepG2 cell line” value (“inhibition of cholesterol biosynthesis” for short) in the series with HepG2 cells is recorded as “markedly inhibited”. In the series with Syrian Golden Hamster, the “HDL cholesterol, change versus normal diet control” value is recorded as “+5.4%”; the “LDL cholesterol, change versus normal diet control” value is -49.2%; the “Total cholesterol, change versus normal diet control” value was -23.5%; the “Triglyceride, change versus normal diet control” value is given as -38.0%. In the series with Syrian Golden Hamster, the “total cholesterol, LDL-cholesterol, and triglyceride levels” value (“total cholesterol, LDL-cholesterol” for short) was “markedly decreased”; the HDL cholesterol was determined as 63.0 ± 3.0 mg/dL; the LDL cholesterol came to 18.8 ± 2 mg/dL; the Total cholesterol turned out to be 89.0 ± 7 mg/dL. Besides, the Triglyceride with Syrian Golden Hamster came out at 49.2 ± 6 mg/dL. Also, the LD50 at 336 h in series [1] (female) was > 2000 mg/kg. Moreover, the LD50 at 336 h in series [1] (male) was > 2000 mg/kg. Besides, in the series with SD rats, the “general symptoms and the body weight change” value was “normal”; the lethal case result is given as “not observed”.
Take `CCc1c2[n+](cc3c(OCc4ccc(C(F)(F)F)cc4)c(OC)ccc13)CCc1cc(OC)c(OC)cc1-2` [Compound No. 9, 5,6-dihydro-2,3-dimethoxybenzo[a]-13-ethyl-10-methoxy-9-(4-trifluoromethyl)benzyloxybenzo[g]quinolizinium chloride]: the half-maximal inhibitory concentration (IC50) at sterol 14-reductase was < 1000 nM. In addition, the “inhibition of cholesterol biosynthesis” value in the series on HepG2 cells is “markedly inhibited”. In addition, in the series with Syrian Golden Hamster, the “HDL cholesterol, change versus normal diet control” value is -6.0%; the “LDL cholesterol, change versus normal diet control” value is -45.4%; the “Total cholesterol, change versus normal diet control” value was -37.0%; the “Triglyceride, change versus normal diet control” value is given as -43.6%. In the series with Syrian Golden Hamster, the “total cholesterol, LDL-cholesterol” value is recorded as “markedly decreased”; the HDL cholesterol came to 56.2 ± 3.0 mg/dL; the LDL cholesterol amounted to 20.2 ± 2 mg/dL; the Total cholesterol was 82.4 ± 7 mg/dL. This compound had a Triglyceride in the series on Syrian Golden Hamster of 44.8 ± 5.5 mg/dL. The LD50 at 336 h in series [1] (female) is > 2000 mg/kg. For the same compound, the LD50 at 336 h in series [1] (male) was > 2500 mg/kg. Moreover, in the series with SD rats, the “general symptoms and the body weight change” value was “normal”; the lethal case entry is “not observed”.
Take `CCCOc1cc2c(cc1OCCC)-c1c(CC)c3ccc(OCCC)c(OCc4ccc(C(F)(F)F)cc4)c3c[n+]1CC2` [Compound No. 68, 5,6-dihydro-2,3-dipropoxybenzo[a]-13-ethyl-10-propoxy-9-(4-trifluoromethyl)benzyloxybenzo[g]quinolizinium chloride]: the IC50 on sterol 14-reductase was < 1000 nM. For the same compound, in the series with HepG2 cells, the “inhibition of cholesterol biosynthesis” value is reported as “markedly inhibited”. In addition, in the series on Syrian Golden Hamster, the “HDL cholesterol, change versus normal diet control” value is -2.0%; the “LDL cholesterol, change versus normal diet control” value is given as -41.1%; the “Total cholesterol, change versus normal diet control” value is listed as -33.1%; the “Triglyceride, change versus normal diet control” value was -43.1%. For the same compound, in the series with Syrian Golden Hamster, the “total cholesterol, LDL-cholesterol” value is on record as “markedly decreased”; the HDL cholesterol amounted to 58.6 ± 3 mg/dL; the LDL cholesterol was determined as 21.8 ± 3 mg/dL; the Total cholesterol was 87.4 ± 6 mg/dL. For the same compound, the Triglyceride in the series with Syrian Golden Hamster was 45.2 ± 7 mg/dL. Further, in series [1] (female), the LD50 at 336 h was > 3000 mg/kg. Also, in series [1] (male), the LD50 at 336 h was > 3000 mg/kg. In the series with SD rats, the “general symptoms and the body weight change” value is recorded as “normal”; the lethal case result was “not observed”.

A word on the IC50: it is the concentration at which inhibition is half-maximal. In general, LD50 refers to the dose at which mortality reaches 50%. A high value points to a less toxic substance.
